Assay results taken from ChEMBL document CHEMBL1201862, “PubChem BioAssay data set” (2004).
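Where inhibition never reached the appropriate level, the endpoint shown equals the highest concentration tested. Otherwise, values were interpolated linearly from a five-concentration, 48-hour dose response in 96-well plates. The concentration for 50% growth inhibition is given as GI50.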 Active and inactive are the calls of the source. Rule as the data show it: active = GI50 up to about 1.1 µM and inactive = higher.

Columns and labels:
Test in all cases: inhibition of tumour cell growth, NCI panel, 48 h
COLO 205 = test system: COLO 205
A549 = test system: A549
HT-29 = test system: HT-29
DU-145 = test system: DU-145
OVCAR-8 = test system: OVCAR-8
HCT-15 = test system: HCT-15
SNB-19 = test system: SNB-19
RPMI-8226 = test system: RPMI-8226
NCI/ADR-RES = test system: NCI/ADR-RES
HL-60 = test system: HL-60
SN12C = test system: SN12C
UACC-62 = test system: UACC-62
SF-268 = test system: SF-268
SF-295 = test system: SF-295
NCI-H460 = test system: NCI-H460
SW-620 = test system: SW-620
SR = test system: SR
ACHN = test system: ACHN
LOX IMVI = test system: LOX IMVI
MCF7 = test system: MCF7
PC-3 = test system: PC-3
MDA-MB-231 = test system: MDA-MB-231
A498 = test system: A498
MDA-MB-435 = test system: MDA-MB-435
OVCAR-3 = test system: OVCAR-3
HOP-62 = test system: HOP-62
SF-539 = test system: SF-539
K562 = test system: K562
KM12 = test system: KM12
UO-31 = test system: UO-31
SNB-75 = test system: SNB-75
BT-549 = test system: BT-549
OVCAR-5 = test system: OVCAR-5
MOLT-4 = test system: MOLT-4
SK-MEL-5 = test system: SK-MEL-5
U-251 = test system: U-251
SK-OV-3 = test system: SK-OV-3
NCI-H522 = test system: NCI-H522
Hs-578T = test system: Hs-578T
HCC 2998 = test system: HCC 2998
TK-10 = test system: TK-10
RXF 393 = test system: RXF 393
UACC-257 = test system: UACC-257
SK-MEL-2 = test system: SK-MEL-2
NCI-H226 = test system: NCI-H226
SK-MEL-28 = test system: SK-MEL-28
IGROV-1 = test system: IGROV-1
T47D = test system: T47D
MDA-N = test system: MDA-N
NCI-H23 = test system: NCI-H23
OVCAR-4 = test system: OVCAR-4
Malme-3M = test system: Malme-3M
786-0 = test system: 786-0
CCRF-CEM = test system: CCRF-CEM
HCT-116 = test system: HCT-116
M14 = test system: M14
EKVX = test system: EKVX
CAKI-1 = test system: CAKI-1
HOP-92 = test system: HOP-92

In the case of `CC(=O)OC12CC(C(F)(F)F)(C(F)(F)F)OC1(OC(C)=O)CC(C(F)(F)F)(C(F)(F)F)O2` (centres undefined), the GI50 (COLO 205) is reported as 3.95 µM (inactive), the GI50 (A549) is reported as 1.26 µM (inactive) and the GI50 (HT-29) is reported as 5.28 µM (inactive). For the same molecule, the GI50 (DU-145) was 4.06 µM (inactive), the GI50 (OVCAR-8) was 2.71 µM (inactive) and the GI50 (HCT-15) was 11.5 µM. The GI50 (SNB-19) was 3.15 µM (inactive), the GI50 (RPMI-8226) was 0.7 µM (active) and the GI50 (NCI/ADR-RES) was 10.9 µM (inactive). The GI50 (HL-60) was 1.89 µM (inactive), the GI50 (SN12C) was 4.66 µM (inactive) and the GI50 (UACC-62) was 2.66 µM (inactive). The GI50 (SF-268) was 1.58 µM (inactive), the GI50 (SF-295) was 6.76 µM (inactive) and the GI50 (NCI-H460) was 4.05 µM (inactive). The GI50 (SW-620) was 5.43 µM (inactive), the GI50 (SR) was 2.55 µM (inactive) and the GI50 (ACHN) was 0.287 µM (active). The GI50 (LOX IMVI) was 1.73 µM (inactive), the GI50 (MCF7) was 0.426 µM (active) and the GI50 (PC-3) was 0.805 µM (active). For the same molecule, the GI50 (MDA-MB-231) was 6.34 µM (inactive), the GI50 (A498) was 2.14 µM (inactive) and the GI50 (MDA-MB-435) was 2.13 µM (inactive). For the same molecule, the GI50 (OVCAR-3) was 2.02 µM (inactive), the GI50 (HOP-62) was 25.4 µM (inactive) and the GI50 (SF-539) was 2.07 µM (inactive). For the same molecule, the GI50 (K562) was 0.612 µM (active), the GI50 (KM12) was 2.33 µM (inactive) and the GI50 (UO-31) was 1.36 µM (inactive). For the same molecule, the GI50 (SNB-75) was 11.1 µM (inactive), the GI50 (BT-549) was 5.42 µM (inactive) and the GI50 (OVCAR-5) was 9.29 µM (inactive). For the same molecule, the GI50 (MOLT-4) was 1.06 µM (active), the GI50 (SK-MEL-5) was 0.385 µM (active) and the GI50 (U-251) was 1.63 µM (inactive). For the same molecule, the GI50 (SK-OV-3) was 4.94 µM (inactive), the GI50 (NCI-H522) was 1.24 µM (inactive) and the GI50 (Hs-578T) was 13.3 µM (inactive). For the same molecule, the GI50 (HCC 2998) was 9.08 µM (inactive), the GI50 (TK-10) was 8.28 µM (inactive) and the GI50 (RXF 393) was 11.5 µM (inactive). For the same molecule, the GI50 (UACC-257) was 3.13 µM (inactive), the GI50 (SK-MEL-2) was 5.75 µM (inactive) and the GI50 (NCI-H226) was 6.17 µM (inactive). For the same molecule, the GI50 (SK-MEL-28) was 4.54 µM (inactive), the GI50 (IGROV-1) was 1.41 µM (inactive) and the GI50 (T47D) was 1.34 µM (inactive). For the same molecule, the GI50 (MDA-N) was 5.92 µM (inactive), the GI50 (NCI-H23) was 1.23 µM (inactive) and the GI50 (OVCAR-4) was 4.23 µM (inactive). For the same molecule, the GI50 (Malme-3M) was 4.86 µM (inactive), the GI50 (786-0) was 2.9 µM (inactive) and the GI50 (CCRF-CEM) was 2.04 µM (inactive). The GI50 (HCT-116) was 3.66 µM (inactive) and the GI50 (M14) was 3.72 µM (inactive).

`Cn1c2ccccc2c(=NNc2ccc(S(=O)(=O)N=C(N)N)cc2)c2ccccc21` was tested, and the GI50 (COLO 205) was 5.53 µM (inactive), the GI50 (A549) was 10 µM (inactive) and the GI50 (HT-29) was 3.8 µM (inactive). The GI50 (DU-145) was 11.2 µM (inactive), the GI50 (OVCAR-8) was 6.03 µM (inactive) and the GI50 (HCT-15) was 10.2 µM. For the same molecule, the GI50 (SNB-19) was 10.6 µM (inactive), the GI50 (RPMI-8226) was 7.8 µM (inactive) and the GI50 (NCI/ADR-RES) was 21.8 µM (inactive). For the same molecule, the GI50 (HL-60) was 14.1 µM (inactive), the GI50 (SN12C) was 8.63 µM (inactive) and the GI50 (UACC-62) was 15.4 µM (inactive). The GI50 (SF-268) was 5.75 µM (inactive), the GI50 (SF-295) was 13.3 µM (inactive) and the GI50 (NCI-H460) was 3.37 µM (inactive). The GI50 (SW-620) was 7.55 µM (inactive), the GI50 (SR) was 5.01 µM (inactive) and the GI50 (ACHN) was 4.55 µM (inactive). The GI50 (LOX IMVI) was 5.02 µM (inactive), the GI50 (MCF7) was 3.14 µM (inactive) and the GI50 (PC-3) was 7.94 µM (inactive). For the same molecule, the GI50 (MDA-MB-231) was 11.4 µM (inactive), the GI50 (EKVX) was 5.57 µM (inactive) and the GI50 (MDA-MB-435) was 11 µM (inactive). For the same molecule, the GI50 (OVCAR-3) was 7.35 µM (inactive), the GI50 (HOP-62) was 11.8 µM (inactive) and the GI50 (SF-539) was 13.8 µM (inactive). For the same molecule, the GI50 (K562) was 4.39 µM (inactive), the GI50 (KM12) was 7.98 µM (inactive) and the GI50 (UO-31) was 4.33 µM (inactive). For the same molecule, the GI50 (CAKI-1) was 10.8 µM (inactive), the GI50 (SNB-75) was 12.2 µM (inactive) and the GI50 (BT-549) was 9.42 µM (inactive). For the same molecule, the GI50 (OVCAR-5) was 6.24 µM (inactive), the GI50 (MOLT-4) was 3.31 µM (inactive) and the GI50 (SK-MEL-5) was 5.41 µM (inactive). For the same molecule, the GI50 (HOP-92) was 12.1 µM (inactive), the GI50 (U-251) was 8.02 µM (inactive) and the GI50 (SK-OV-3) was 8.93 µM (inactive). The GI50 (NCI-H522) was 3.82 µM (inactive), the GI50 (Hs-578T) was 17.6 µM (inactive) and the GI50 (HCC 2998) was 6.25 µM (inactive). The GI50 (TK-10) was 7.6 µM (inactive), the GI50 (RXF 393) was 0.611 µM (active) and the GI50 (UACC-257) was 15.5 µM (inactive). The GI50 (SK-MEL-2) was 13.5 µM (inactive), the GI50 (NCI-H226) was 4.49 µM (inactive) and the GI50 (IGROV-1) was 11.7 µM (inactive). For the same molecule, the GI50 (T47D) was 6.35 µM (inactive), the GI50 (MDA-N) was 12.4 µM (inactive) and the GI50 (NCI-H23) was 9.64 µM (inactive). The GI50 (OVCAR-4) was 3.37 µM (inactive), the GI50 (Malme-3M) was 8.26 µM (inactive) and the GI50 (786-0) was 5.98 µM (inactive). The GI50 (CCRF-CEM) was 6.68 µM (inactive), the GI50 (HCT-116) was 5.65 µM (inactive) and the GI50 (M14) was 16.3 µM (inactive).

`CCOC(=O)CCC(NC(=O)c1ccc(Nc2nc3ccccc3n3cccc23)cc1)C(=O)OCC` (centres undefined) was tested, and the GI50 (COLO 205) was 53.8 µM (inactive), the GI50 (A549) was 39.6 µM (inactive) and the GI50 (HT-29) was 17.9 µM (inactive). The GI50 (DU-145) was 28.9 µM (inactive), the GI50 (OVCAR-8) was 19.6 µM (inactive) and the GI50 (HCT-15) was 29.7 µM. The GI50 (SNB-19) was 42.1 µM (inactive), the GI50 (RPMI-8226) was 23.1 µM (inactive) and the GI50 (NCI/ADR-RES) was 19.5 µM (inactive). For the same molecule, the GI50 (HL-60) was > 100 µM (inactive), the GI50 (UACC-62) was 23.1 µM (inactive) and the GI50 (SF-268) was 37.8 µM (inactive). The GI50 (SF-295) was 25.2 µM (inactive), the GI50 (NCI-H460) was 28.7 µM (inactive) and the GI50 (SW-620) was 81.7 µM (inactive). The GI50 (SR) was 15.3 µM (inactive), the GI50 (ACHN) was 20.6 µM (inactive) and the GI50 (LOX IMVI) was 26.1 µM (inactive). For the same molecule, the GI50 (MCF7) was 16.6 µM (inactive), the GI50 (PC-3) was 16.4 µM (inactive) and the GI50 (MDA-MB-231) was 21.5 µM (inactive). The GI50 (A498) was 70.1 µM (inactive), the GI50 (EKVX) was 41.5 µM (inactive) and the GI50 (MDA-MB-435) was 30.2 µM (inactive). The GI50 (OVCAR-3) was 18.2 µM (inactive), the GI50 (HOP-62) was 23.7 µM (inactive) and the GI50 (SF-539) was 18.8 µM (inactive). For the same molecule, the GI50 (K562) was 38.5 µM (inactive), the GI50 (KM12) was 31.1 µM (inactive) and the GI50 (UO-31) was 44.9 µM (inactive). For the same molecule, the GI50 (CAKI-1) was 33.6 µM (inactive), the GI50 (SNB-75) was 26.7 µM (inactive) and the GI50 (BT-549) was 23.3 µM (inactive). The GI50 (OVCAR-5) was 45.6 µM (inactive), the GI50 (MOLT-4) was 18.3 µM (inactive) and the GI50 (SK-MEL-5) was 31 µM (inactive). For the same molecule, the GI50 (HOP-92) was 32.1 µM (inactive), the GI50 (U-251) was 23 µM (inactive) and the GI50 (SK-OV-3) was 24.1 µM (inactive). For the same molecule, the GI50 (NCI-H522) was 22.9 µM (inactive), the GI50 (Hs-578T) was 35.6 µM (inactive) and the GI50 (HCC 2998) was 29.8 µM (inactive). The GI50 (TK-10) was 22.5 µM (inactive), the GI50 (RXF 393) was 12.2 µM (inactive) and the GI50 (UACC-257) was 26.2 µM (inactive). The GI50 (SK-MEL-2) was 20 µM (inactive), the GI50 (SK-MEL-28) was 47.6 µM (inactive) and the GI50 (IGROV-1) was 35.5 µM (inactive). The GI50 (T47D) was < 0.01 µM (active), the GI50 (MDA-N) was 28.4 µM (inactive) and the GI50 (NCI-H23) was 35.9 µM (inactive). For the same molecule, the GI50 (Malme-3M) was 37.2 µM (inactive), the GI50 (786-0) was 17 µM (inactive) and the GI50 (CCRF-CEM) was 54.8 µM (inactive). For the same molecule, the GI50 (HCT-116) was 31.2 µM (inactive) and the GI50 (M14) was 51.6 µM (inactive).
